In assay [1] the target is Melanin-concentrating hormone receptor 1 (Homo sapiens, UniProt Q99705). Description: Late-stage fluorescence-based counterscreen for antagonists of the G-protein coupled receptor 7 (GPR7): cell-based dose response assay to identify antagonists of the melanin-concentrating hormone receptor 1 (MCHR1). [Related pubchem assays (depositor defined):AID1861, AID1880, AID1952, AID2148, AID2251, AID2257, AID485339]. It counts as functional. (In general: The purpose of a counterscreen is to sort out artefacts and off-target activity.);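 also: stimulated with 30 nM MCH peptide agonist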

Assay [2] concerns the target T1, Neuropeptides B/W receptor type 1 (Homo sapiens, UniProt P48145).
T1 sequence (P48145 whole entry): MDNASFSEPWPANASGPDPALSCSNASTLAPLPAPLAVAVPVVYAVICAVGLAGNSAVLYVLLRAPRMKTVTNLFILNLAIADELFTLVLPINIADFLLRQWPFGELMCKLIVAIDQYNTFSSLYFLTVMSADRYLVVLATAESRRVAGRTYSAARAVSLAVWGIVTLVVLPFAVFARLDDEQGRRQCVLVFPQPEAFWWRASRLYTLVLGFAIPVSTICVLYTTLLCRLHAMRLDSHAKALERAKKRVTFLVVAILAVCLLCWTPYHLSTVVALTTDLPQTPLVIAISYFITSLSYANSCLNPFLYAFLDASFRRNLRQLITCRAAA
Put plainly: human NPBW1 receptor blockade, IC50 – cell-based, fluorescence, dose response, late-stage follow-up (AID 463251). Format: functional.

Assay [3] has as its target Tyrosine-protein phosphatase non-receptor type 12 (Homo sapiens, UniProt Q05209). Put plainly: SAR Selectivity Analysis of small molecule inhibitors of PEST using pCAP in a fluorescence assay. [Related pubchem assays (depositor defined):AID1779, AID1784, AID2135]. It counts as functional.
The target of assay [4] is T2, Tyrosine-protein phosphatase non-receptor type 22 (Homo sapiens, UniProt Q9Y2R2).
T2 sequence (Q9Y2R2 whole entry): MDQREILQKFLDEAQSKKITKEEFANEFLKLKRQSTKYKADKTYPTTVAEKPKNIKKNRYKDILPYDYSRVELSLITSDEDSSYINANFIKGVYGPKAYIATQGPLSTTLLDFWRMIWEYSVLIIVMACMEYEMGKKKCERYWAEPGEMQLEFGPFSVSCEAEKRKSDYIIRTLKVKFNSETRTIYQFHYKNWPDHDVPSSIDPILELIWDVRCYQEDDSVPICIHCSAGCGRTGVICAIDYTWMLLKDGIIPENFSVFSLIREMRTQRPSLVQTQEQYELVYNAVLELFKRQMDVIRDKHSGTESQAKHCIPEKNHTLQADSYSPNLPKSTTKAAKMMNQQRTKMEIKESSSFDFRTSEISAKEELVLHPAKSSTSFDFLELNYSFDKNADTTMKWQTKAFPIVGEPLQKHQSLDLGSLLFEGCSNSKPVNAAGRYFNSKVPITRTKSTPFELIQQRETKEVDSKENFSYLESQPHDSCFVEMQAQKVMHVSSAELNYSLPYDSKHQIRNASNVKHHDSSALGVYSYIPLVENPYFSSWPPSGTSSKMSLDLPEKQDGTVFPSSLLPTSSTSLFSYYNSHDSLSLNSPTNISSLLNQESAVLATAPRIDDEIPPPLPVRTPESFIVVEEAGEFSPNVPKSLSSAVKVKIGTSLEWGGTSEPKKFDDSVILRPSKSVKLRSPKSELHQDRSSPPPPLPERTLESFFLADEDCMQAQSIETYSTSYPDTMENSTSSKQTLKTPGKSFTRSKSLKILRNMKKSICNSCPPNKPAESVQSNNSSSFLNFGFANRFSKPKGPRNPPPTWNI
Description: inhibition of lymphoid tyrosine phosphatase LYP – biochemical, pCAP fluorogenic substrate, fluorescence, set 3, SAR follow-up (AID 449727). It counts as functional.

Assay [5] concerns the target T2, Tyrosine-protein phosphatase non-receptor type 22. Description: SAR LYP1 Fluorescent Assay using OMFP substrate for In Vitro dose response studies - Set 3. [Related pubchem assays (depositor defined):AID1779, AID1784, AID2140, AID2686]. It counts as functional.
The target of assay [6] is Glyceraldehyde-3-phosphate dehydrogenase (Homo sapiens, UniProt P04406).
Assay [7] has as its target Protein Rev (Human immunodeficiency virus type 1 group M subtype B (isolate HXB2)(HIV-1), UniProt P04618). Description: blockers of HIV Rev/RRE RNA complex – biochemical, fluorescence polarization, HIV-1, dose response (AID 434976). On the set-up: species or system Human immunodeficiency virus 1. In general terms: Polarisation of emitted light reports the rotation of a fluorescent probe.

Assay [8] has as its target Female germline-specific tumor suppressor gld-1 (Caenorhabditis elegans, UniProt Q17339). Put plainly: blockers of GLD-1/TGE RNA complex formation – biochemical, fluorescence polarization, C. elegans, dose response (AID 2802).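 Also: fluorescence polarization of labeled TGE RNA bound by purified gld-1 protein.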
Assay [9] concerns the target T3, Insulin-degrading enzyme (Homo sapiens, UniProt P14735).
T3 sequence (P14735 whole entry): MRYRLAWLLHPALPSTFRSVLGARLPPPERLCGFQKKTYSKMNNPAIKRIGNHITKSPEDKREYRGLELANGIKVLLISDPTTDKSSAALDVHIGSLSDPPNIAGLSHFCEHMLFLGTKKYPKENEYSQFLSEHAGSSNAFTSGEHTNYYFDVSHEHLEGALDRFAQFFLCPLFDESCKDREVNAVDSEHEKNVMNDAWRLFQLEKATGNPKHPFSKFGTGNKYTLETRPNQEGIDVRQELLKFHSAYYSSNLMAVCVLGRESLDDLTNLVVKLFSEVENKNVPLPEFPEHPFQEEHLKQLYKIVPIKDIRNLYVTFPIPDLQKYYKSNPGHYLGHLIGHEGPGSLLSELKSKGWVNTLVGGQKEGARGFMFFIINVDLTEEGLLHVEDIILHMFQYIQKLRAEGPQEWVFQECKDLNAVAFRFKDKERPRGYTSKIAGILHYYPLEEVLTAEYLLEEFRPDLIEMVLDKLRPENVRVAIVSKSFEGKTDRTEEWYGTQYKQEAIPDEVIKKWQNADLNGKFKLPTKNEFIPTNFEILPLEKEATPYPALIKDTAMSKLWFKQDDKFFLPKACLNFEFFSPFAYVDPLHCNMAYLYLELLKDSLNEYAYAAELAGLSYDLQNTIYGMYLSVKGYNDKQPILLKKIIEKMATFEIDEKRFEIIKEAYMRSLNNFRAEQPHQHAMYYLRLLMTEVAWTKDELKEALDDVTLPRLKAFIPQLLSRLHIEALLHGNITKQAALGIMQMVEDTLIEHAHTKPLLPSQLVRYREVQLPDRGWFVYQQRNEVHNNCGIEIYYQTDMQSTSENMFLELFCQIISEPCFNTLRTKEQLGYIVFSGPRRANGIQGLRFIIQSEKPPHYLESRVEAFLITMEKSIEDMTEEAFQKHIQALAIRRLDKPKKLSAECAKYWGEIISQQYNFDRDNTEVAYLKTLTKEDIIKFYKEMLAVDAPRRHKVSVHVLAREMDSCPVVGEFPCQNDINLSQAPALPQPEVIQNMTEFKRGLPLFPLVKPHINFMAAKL
Description: recombinant IDE activation, cell-free – biochemical, fluorescence polarization, counter-screen for IDE activator project, dose response (AID 588681).

In assay [10] the target is T3, Insulin-degrading enzyme. Put plainly: cellular IDE activation of Abeta substrate cleavage – fluorescence polarization, HEK cells, dose response (AID 588439). Format: functional, cell-based.
Assay [11] has as its system HEK293. Put plainly: optical interference in Abeta FP readout, dose response, artefact control for IDE activator project, biochemical, fluorescence polarization (AID 588442). It counts as functional, cell-based. The note with it: Homo sapiens.
The subject of assay [12] is HEK293. Description: membrane integrity loss in HEK cells – cell-based, fluorescence, cytotoxicity control for IDE activator project, dose response (AID 588440).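 Also: cytotoxicity by LDH release measuring loss of membrane integrity.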 Format: functional. The note with it: Homo sapiens.
The target in assay [13] is T4, Trace amine-associated receptor 1 (Homo sapiens, UniProt Q96RJ0).
T4 sequence (Q96RJ0 whole entry): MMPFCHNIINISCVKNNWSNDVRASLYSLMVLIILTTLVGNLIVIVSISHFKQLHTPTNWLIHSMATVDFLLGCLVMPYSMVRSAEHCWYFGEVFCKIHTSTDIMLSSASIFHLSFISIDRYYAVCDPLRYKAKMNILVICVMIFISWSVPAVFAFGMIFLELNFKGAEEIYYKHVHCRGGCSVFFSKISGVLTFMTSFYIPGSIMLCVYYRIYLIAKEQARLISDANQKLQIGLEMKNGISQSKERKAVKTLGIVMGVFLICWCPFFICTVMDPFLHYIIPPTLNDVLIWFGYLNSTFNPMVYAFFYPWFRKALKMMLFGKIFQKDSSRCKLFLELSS
Put plainly: Counterscreen for agonists of the human trace amine associated receptor 1 (hTAAR1): Fluorescence-based cell-based high throughput dose response assay to identify hTAAR1 agonist that also desensitize TAAR1 receptor response. Format: functional.

Assay [14] deals with Trypsin (Sus scrofa, UniProt P00761). Description: trypsin protease activity blockade – biochemical, quenched peptide fluorescence, cherry-pick, selectivity assay for Rce1 protease inhibitor project, dose response (AID 488789).
The nature of assay [15]: cells. It counts as functional, cell-based.
A short description of assay [16]: viability of uninfected HEp-2 cells – cell-based, HTS, cytotoxicity control for RSV inhibitor project, dose response (AID 2410). It counts as functional. The note with it: human respiratory syncytial virus.
Assay [17] is described as follows: cells. Format: functional, cell-based. The source holds these as a separate data set.
Assay [18] has as its target T4, Trace amine-associated receptor 1. Description: Fluorescence-based cell-based high throughput dose response assay to identify agonists of the human trace amine associated receptor 1 (TAAR1). It counts as functional.

The results in this text go back to ChEMBL document CHEMBL1201862, “PubChem BioAssay data set” (2004).

The source made the active and inactive calls. A value given as a limit tells only on which side of the number the result lay.

Chain of Trypsin (P00761 whole entry): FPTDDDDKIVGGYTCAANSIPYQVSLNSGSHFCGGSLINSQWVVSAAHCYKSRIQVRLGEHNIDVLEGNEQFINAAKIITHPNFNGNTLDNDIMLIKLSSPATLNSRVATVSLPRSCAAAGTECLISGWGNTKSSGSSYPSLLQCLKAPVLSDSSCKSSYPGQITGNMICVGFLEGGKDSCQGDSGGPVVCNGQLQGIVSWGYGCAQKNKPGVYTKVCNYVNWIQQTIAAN
Chain of Female germline-specific tumor suppressor gld-1 (Q17339 whole entry): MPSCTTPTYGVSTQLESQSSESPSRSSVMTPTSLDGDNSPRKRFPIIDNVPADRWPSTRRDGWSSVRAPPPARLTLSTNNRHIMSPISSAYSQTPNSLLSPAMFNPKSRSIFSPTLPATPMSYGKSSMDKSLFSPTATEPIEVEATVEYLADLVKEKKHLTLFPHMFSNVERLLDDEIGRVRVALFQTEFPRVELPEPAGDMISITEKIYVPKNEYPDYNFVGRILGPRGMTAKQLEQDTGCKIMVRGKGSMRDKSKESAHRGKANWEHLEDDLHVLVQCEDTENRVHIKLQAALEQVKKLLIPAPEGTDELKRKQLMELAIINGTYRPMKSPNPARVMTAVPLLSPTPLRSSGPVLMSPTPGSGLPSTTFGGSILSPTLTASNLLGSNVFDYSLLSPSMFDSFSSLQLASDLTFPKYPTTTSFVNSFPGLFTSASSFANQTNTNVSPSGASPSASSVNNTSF
Chain of Protein Rev (P04618 whole entry): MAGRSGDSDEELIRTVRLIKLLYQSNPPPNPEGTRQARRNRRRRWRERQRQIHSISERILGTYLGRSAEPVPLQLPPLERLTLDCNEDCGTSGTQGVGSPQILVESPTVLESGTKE
Chain of Melanin-concentrating hormone receptor 1 (Q99705 whole entry): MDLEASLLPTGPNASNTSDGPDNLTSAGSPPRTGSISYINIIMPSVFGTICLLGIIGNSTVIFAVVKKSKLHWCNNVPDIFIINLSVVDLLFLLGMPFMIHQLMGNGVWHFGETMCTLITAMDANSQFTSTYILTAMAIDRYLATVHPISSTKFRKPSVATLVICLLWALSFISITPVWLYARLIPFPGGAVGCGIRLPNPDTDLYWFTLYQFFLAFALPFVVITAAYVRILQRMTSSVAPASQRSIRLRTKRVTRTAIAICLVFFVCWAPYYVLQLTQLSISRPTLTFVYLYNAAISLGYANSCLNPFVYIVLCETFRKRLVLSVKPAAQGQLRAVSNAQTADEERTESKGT
Chain of Tyrosine-protein phosphatase non-receptor type 12 (Q05209 whole entry): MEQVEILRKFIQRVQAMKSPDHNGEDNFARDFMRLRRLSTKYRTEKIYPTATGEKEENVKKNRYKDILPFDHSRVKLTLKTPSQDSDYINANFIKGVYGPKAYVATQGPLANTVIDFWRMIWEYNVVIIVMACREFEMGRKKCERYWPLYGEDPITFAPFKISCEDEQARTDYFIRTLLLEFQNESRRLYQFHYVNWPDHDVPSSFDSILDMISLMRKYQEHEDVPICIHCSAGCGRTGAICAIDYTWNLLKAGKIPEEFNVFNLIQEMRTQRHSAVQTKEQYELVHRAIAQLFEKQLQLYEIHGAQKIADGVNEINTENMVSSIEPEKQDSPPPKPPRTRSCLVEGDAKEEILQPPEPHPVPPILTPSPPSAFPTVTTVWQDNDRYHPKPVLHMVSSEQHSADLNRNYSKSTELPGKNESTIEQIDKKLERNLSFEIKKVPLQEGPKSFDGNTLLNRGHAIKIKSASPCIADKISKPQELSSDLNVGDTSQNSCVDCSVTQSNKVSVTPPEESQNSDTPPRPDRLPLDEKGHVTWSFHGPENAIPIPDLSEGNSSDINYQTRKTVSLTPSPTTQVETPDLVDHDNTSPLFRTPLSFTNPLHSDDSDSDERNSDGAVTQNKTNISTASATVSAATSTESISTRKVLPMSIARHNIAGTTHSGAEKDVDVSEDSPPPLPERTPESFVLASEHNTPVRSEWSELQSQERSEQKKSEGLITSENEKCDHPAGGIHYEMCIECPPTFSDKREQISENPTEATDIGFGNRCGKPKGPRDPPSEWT
Chain of Glyceraldehyde-3-phosphate dehydrogenase (P04406 whole entry): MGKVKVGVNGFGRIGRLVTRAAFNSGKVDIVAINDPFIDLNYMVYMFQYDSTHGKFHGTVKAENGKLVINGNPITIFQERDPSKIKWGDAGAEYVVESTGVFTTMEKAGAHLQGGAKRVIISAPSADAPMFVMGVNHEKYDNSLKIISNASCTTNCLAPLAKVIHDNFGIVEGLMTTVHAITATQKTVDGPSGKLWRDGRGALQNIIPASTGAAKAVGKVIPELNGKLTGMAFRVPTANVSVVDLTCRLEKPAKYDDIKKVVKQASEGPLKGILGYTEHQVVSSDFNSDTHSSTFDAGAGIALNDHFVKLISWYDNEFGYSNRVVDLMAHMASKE

Consider `Cc1ccc(CN2CCCCC2C(=O)N2CCN(c3ccc([N+](=O)[O-])cc3)CC2)cc1` (stereo not drawn), for which the IC50 is 5.8 µM (active) in assay [1] and 9 µM (active) in [2].

Consider `COc1ccc(/C=C2\SC(=S)N(C(CC(=O)O)C(=O)O)C2=O)cc1` (stereo not drawn), for which the IC50 in assay [3] was > 100 µM (inactive); in assay [4] it was > 100 µM (inactive); in [5] it was > 100 µM (inactive); in [6] it was > 100 µM (not active).

On to `O=C(O)c1ccccc1N=Nc1ccc(O)cc1`, for which the IC50 in assay [7] was 22 µM (not active); in [8], 8.4 µM (active); in assay [12] it was > 89.2 µM (inactive). The results for the EC50 in assay [9], in [10] and in assay [11] were 26.9 µM (inactive), 22.3 µM (inactive) and 50.3 µM (inactive), respectively.

Turning to `O=C(NCC1CC1)c1ccc(Nc2nc3cc(Br)ccc3[nH]2)cc1`, the IC50 in [13] was 2.09 µM (active); in [15], 14.5 µM (inactive). Besides, in [14], the AC50 is 9.83 µM (active). The CC50 in [16] is 7.81 µM (active). In addition, the EC50 in assay [17] was > 29.9 µM (inactive); in assay [18], 14.6 µM (inactive).

By IC50 is commonly meant the midpoint of a concentration-inhibition curve. Broadly, the EC50 is the concentration that produces a half-maximal response. For orientation: AC50 means the midpoint of the concentration-response curve, whichever way the signal moves. One may read the CC50 as the concentration giving 50% cytotoxicity.
